Laboratory results from patent US7919465B2, “Peptide mimotopes that inhibits interaction between a platelet receptor and a platelet receptor ligand” (priority 2006, dated 2011).
pIC50: −log10 of the molar value. Where two headings read alike, the source gives them in different places. Non-standard residues stand in square brackets, D forms with d. No end group written: not given here.

Tests used:
GPIb-vWf interaction = biological target: T1, GPIb-vWf interaction (Homo sapiens, UniProt P07359); test: Flow cytometry inhibition of vWf binding to ristocetin-activated platelets in PRP; format: cell-based
T1 construct: Platelet rich plasma (PRP) was prepared from whole blood by centrifugation; endogenous in cells
Description: (§1) In order to prepare human platelets for testing, as approved by Canadian Blood Services' Ethics Board, samples of whole blood were drawn from healthy, consenting donors into 2.7-4.0 mL citrated tubes (BD, USA). Platelet rich plasma (PRP) was prepared from whole blood by centrifugation in a Beckman (CS-6R) bench-top centrifuge (r=203.57 mm, Beckman Coulter, USA) 164×g for 15 minutes. PRP from a number of unrelated donors were evaluated on an Adiva 120 Hematology Analyzer (Bayer, Canada) and standardized to a concentration of 300×10^9 platelets/L in HEPES buffered saline (HBS, 10 mM HEPES, 150 mM NaCl, pH 7.4).
Thereafter the samples were diluted and fixed with 1.0 mL 0.2% formolsaline (0.2% formaldehyde, 150 mM NaCl, pH 7.20) before analysis on a FACS Canto flow cytometer (BD, USA).
The effect of native HPG, free peptides, and peptide-conjugated HPG on activated platelets using modifications of the above assay systems was also examined. Platelets were treated with either 5 μL 4.2 mg/mL ristocetin (Chrono-Log, USA) or 100 U thrombin (T6884, Sigma-Aldrich, Canada) with 5 μL GPRP fibrin inhibitor (G5779, Sigma-Aldrich, Canada) dissolved in HBS. […] Controls included incubation with mouse IgG-FITC/IgG-PE (Beckman-Coulter, Canada) of the same isotype, and/or omitting the conjugate.

platelets = test: Aggregometry, % aggregation on activation; format: cell-based, human; parameters: concentration or dose not given beside the values; settings: ristocetin activation
Description: as §1
(§2) The effect of native HPG, free peptides, and peptide-conjugated HPG on activated platelets using modifications of the above assay systems was also examined. Platelets were treated with either 5 μL 4.2 mg/mL ristocetin (Chrono-Log, USA) or 100 U thrombin (T6884, Sigma-Aldrich, Canada) with 5 μL GPRP fibrin inhibitor (G5779, Sigma-Aldrich, Canada) dissolved in HBS. This was done to determine whether the peptides and the peptide-conjugates can mitigate vWf and thrombin mediated platelet effects. Controls included incubation with mouse IgG-FITC/IgG-PE (Beckman-Coulter, Canada) of the same isotype, and/or omitting the conjugate. As a result, native HPG, free peptides, and peptide-conjugated HPG neither did they increase vWf binding to resting platelets (Table 5) or they could trigger platelet activation.
The inhibition of platelet agglutination by vWf was observed both by light microscopy and lumiaggregometry (Table 5). No clumping was seen when resting platelets were incubated with free peptides, native HPG, or peptide-conjugated HPG.

[1] = tested on: CD62/P-selectin on platelet surfaces; test: Flow cytometry of surface CD62 expression on platelets; format: cell-based, human; settings: for Surface CD62 Expression, Activated Platelets: thrombin-activated platelets
Description: as §1
(§3) 40 μL aliquots of HBS were mixed with 5 μL PRP and 5 μL of the material to be tested: 500 kDa native HPG; free peptides; or peptide-conjugated HPG at 1.0×10^−3 M to 1.0×10^−9 M. After 40 minutes of incubation at ambient temperature, 5 μL 0.01 mg/mL FITC-conjugated polyclonal sheep anti-human vWf IgG (Abcam, USA) or 5 μL of 2 mg/mL PE-conjugated monoclonal mouse anti-human CD62 IgG (Beckman-Coulter, Canada) was added and incubation was continued in the dark for 30 min. Thereafter the samples were diluted and fixed with 1.0 mL 0.2% formolsaline (0.2% formaldehyde, 150 mM NaCl, pH 7.20) before analysis on a FACS Canto flow cytometer (BD, USA).
as §2, with “activation. […]” for “activation.”

[2] = tested on: vWf binding to resting platelets; test: Flow cytometry of vWf binding to resting platelets; format: cell-based, human
Description: as §1, §3, §2

GPIIbIIIa = test: Ristocetin-mediated GPIIbIIIa activation probed by PAC-1 antibody, flow cytometry; format: cell-based, human; settings: at IC50 concentration, 60 minutes, PAC-1, p<0.05
Description: To show inhibition of the GPIb-vWf interaction in PRP, activation had to target the plasma component, specifically vWf, by ristocetin, rather than the consequences of platelet activators such as thrombin or ADP. Ristocetin mediated GPIb signaling was detected through GPIIbIIIa activation and flow cytometry. 5 μL resting PRP were incubated with […] (SEQ ID NO:8) or L100 at their respective IC50 concentrations for 60 minutes and 5 μL 4.2 mg/mL ristocetin was used to induce platelet activation. Consequent GPIIbIIIa activation was probed via a monoclonal FITC-conjugated PAC-1 antibody to the active conformation of GPIIbIIIa (BD, Canada).

fibrinogen = biological target: T2, fibrinogen (Homo sapiens, UniProt P02671+P02675+P02679); test: Binding of D-amino acid-containing sequences to fibrinogen
T2 sequence (P02671 20-629 limits assumed): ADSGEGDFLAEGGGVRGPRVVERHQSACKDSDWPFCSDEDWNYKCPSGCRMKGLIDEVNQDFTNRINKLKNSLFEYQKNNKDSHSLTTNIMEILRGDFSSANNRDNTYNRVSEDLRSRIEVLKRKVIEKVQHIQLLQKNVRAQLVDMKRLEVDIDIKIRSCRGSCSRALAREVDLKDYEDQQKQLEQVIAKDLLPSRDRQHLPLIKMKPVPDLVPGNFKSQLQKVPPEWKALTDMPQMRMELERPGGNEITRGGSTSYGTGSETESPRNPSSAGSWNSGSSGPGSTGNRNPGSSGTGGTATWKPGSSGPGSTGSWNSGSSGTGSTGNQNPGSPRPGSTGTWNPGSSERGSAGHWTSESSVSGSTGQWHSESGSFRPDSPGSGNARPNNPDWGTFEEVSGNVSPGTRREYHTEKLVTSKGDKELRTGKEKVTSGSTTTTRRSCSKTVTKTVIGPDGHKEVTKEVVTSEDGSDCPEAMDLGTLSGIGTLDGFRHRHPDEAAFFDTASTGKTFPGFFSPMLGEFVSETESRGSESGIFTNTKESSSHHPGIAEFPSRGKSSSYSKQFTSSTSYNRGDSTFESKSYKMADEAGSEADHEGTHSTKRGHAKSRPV
T2 sequence (P02675 31-491): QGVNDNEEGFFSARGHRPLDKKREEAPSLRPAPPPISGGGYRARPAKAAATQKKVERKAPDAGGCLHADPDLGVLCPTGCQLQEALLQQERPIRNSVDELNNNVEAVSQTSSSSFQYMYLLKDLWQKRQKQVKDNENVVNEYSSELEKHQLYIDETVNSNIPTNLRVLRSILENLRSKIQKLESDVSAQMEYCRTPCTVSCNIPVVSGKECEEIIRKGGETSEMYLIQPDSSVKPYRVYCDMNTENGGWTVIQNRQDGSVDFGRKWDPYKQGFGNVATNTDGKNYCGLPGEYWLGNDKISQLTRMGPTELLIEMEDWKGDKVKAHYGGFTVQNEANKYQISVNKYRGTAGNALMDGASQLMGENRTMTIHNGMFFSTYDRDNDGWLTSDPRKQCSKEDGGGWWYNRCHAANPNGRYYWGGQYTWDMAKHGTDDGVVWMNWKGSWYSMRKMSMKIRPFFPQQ
T2 sequence (P02679 27-433 limits assumed): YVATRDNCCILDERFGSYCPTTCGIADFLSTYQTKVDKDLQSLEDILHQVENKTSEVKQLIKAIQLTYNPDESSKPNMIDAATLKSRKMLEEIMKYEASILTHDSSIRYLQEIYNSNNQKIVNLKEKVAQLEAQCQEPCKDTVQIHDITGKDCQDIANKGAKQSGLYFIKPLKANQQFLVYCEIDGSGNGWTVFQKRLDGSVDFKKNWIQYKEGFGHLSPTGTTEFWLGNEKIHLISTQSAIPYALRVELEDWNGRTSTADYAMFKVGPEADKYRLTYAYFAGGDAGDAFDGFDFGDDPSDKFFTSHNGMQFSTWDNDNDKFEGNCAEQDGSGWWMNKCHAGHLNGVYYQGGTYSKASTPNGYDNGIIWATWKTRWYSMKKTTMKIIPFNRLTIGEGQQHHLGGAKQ
Description: These peptides can be used to pull/capture fibrinogen from a solution as well as to inhibit the interaction between fibrinogen and its cognate receptor(s).

Row | Substance | Surface CD62 Expression, Resting Platelets [1] | Surface CD62 Expression, Activated Platelets [1] | vWf Binding, Resting Platelets [2] | GPIIbIIIa activation upon ristocetin stimulation (GPIIbIIIa) | ability to bind to fibrinogen (fibrinogen) | further results
1 | CGGGGGGSHAYIGLKDR [L-pep] | 18 ± 1 | 72 ± 8″ | 24 ± 4′ | significantly attenuated |  | pIC50 (GPIb-vWf interaction): 4.32; Aggregometry % Aggregation on Activation (platelets): 5 ± 5%
2 | KYQCYAPAHPSYVNY (also: D-amino acids, places not given here) |  |  |  |  | bind to fibrinogen | 
3 | SMTSMCYLIGAPKYK (also: D-amino acids, places not given here) |  |  |  |  | bind to fibrinogen | 
4 | FKWSWEWQGQEAYYD ([dF][dK][dW][dS][dW][dE][dW][dQ]G[dQ][dE][dA][dY][dY][dD]) |  |  |  |  | bind to fibrinogen | 
5 | L100: HPG 500 kDa conjugate with about 100 L-peptides per HPG molecule (CGGGGGGSHAYIGLKDR; also: conjugated to HPG 500 kDa, about 100 L-peptides per HPG molecule, site not given here) | 20 ± 3 | 71 ± 5″ | 23 ± 2′ | significantly attenuated |  | inhibition of vWf binding to platelets (in words) (GPIb-vWf interaction): effective inhibitors; pIC50 (GPIb-vWf interaction; expressed as peptide concentration, read-out: Peptide Concentration at Ic50): 3.68; pIC50 (GPIb-vWf interaction; inhibition of platelet-vWf binding, molar concentration of peptide or conjugate, read-out: Ic50): 5.96
6 | FRIYYVYTTSQQDSC ([dF][dR][dI][dY][dY][dV][dY][dT][dT][dS][dQ][dQ][dD][dS][dC]) |  |  |  |  | bind to fibrinogen | 
